Common to all, as to format: cell-based
Test [1] deals with HTT mRNA. Put plainly: Splicing assay (RT-qPCR) monitoring HTT canonical junction (CJ) and alternative junction (AJ) mRNA isoforms. Conditions: A673 or K562 cells, 24 h treatment, top dose 10 uM. How it is done: Compounds described herein were used to modulate RNA transcript abundance in cells. The expression of a target mRNA was measured by detecting the formation of an exon-exon junction in the canonical transcript (CJ). A compound mediated exon-inclusion event was detected by observing an increase in formation of a new junction with an alternative exon (AJ). Real-time qPCR assays were used to detect these splicing switches and interrogate the potency of various compounds towards different target genes. A high-throughput real time quantitative PCR (RT-qPCR) assay was developed to measure these two isoforms of the mRNA (CJ and AJ) for an exemplary gene, HTT, together with a control housekeeping gene, GAPDH or GUSB or PPIA, used for normalization. Briefly, the A673 or K562 cell line was treated with various compounds described herein (e.g., compounds of Formula (I)). After treatment, the levels of the HTT mRNA targets were determined from each sample of cell lysate by cDNA synthesis followed by qPCR.
• Cells-to-CT 1-step kit: ThermoFisher A25602, Cells-to-CT lysis reagent: ThermoFisher 4391851C, TaqMan™ Fast Virus 1-Step Master Mix: ThermoFisher 4444436 • GAPDH: VIC-PL, ThermoFisher 4326317E (Assay: Hs99999905_m1)—used for K562/suspension cell lines • GUSB: VIC-PL, ThermoFisher 4326320E (Assay: Hs99999908_m1)—used for K562/suspension cell lines • PPIA: VIC-PL, ThermoFisher 4326316E (Assay: Hs99999904_m1) — used for A673/adherent cell lines
The A673 cell line was cultured in DMEM with 10% FBS. Cells were diluted with full growth media and plated in a 96-well plate (15,000 cells in 100 ul media per well). The plate was incubated at 37° C. with 5% CO2 for 24 hours to allow cells to adhere. An 11-point 3-fold serial dilution of the compounds was made in DMSO then diluted in media in an intermediate plate. Compounds were transferred from the intermediate plate to the cell plate with the top dose at a final concentration of 10 uM in the well. Final DMSO concentration was kept at or below 0.25%. The cell plate was returned to the incubator at 37° C. with 5% CO2 for an additional 24 hours.
The K562 cell line was cultured in IMDM with 10% FBS. For K562, cells were diluted with full growth media and plated in either a 96-well plate (50,000 cells in 50 uL media per well) or a 384-well plate (8,000-40,000 cells in 45 uL media per well). An 11-point 3-fold serial dilution of the compounds were made in DMSO then diluted in media in an intermediate plate. Compound was transferred from the intermediate plate to the cell plate with the top dose at a final concentration of 10 uM in the well. Final DMSO concentration was kept at or below 0.25%. Final volume was 100 uL for 96-well plate and 50 uL for 384-well plate. The cell plate was then placed in an incubator at 37° C. with 5% CO2 for 24 hours.
The cells were then gently washed with 50 uL-100 uL cold PBS before proceeding to addition of lysis buffer. 30 uL-50 uL of room temperature lysis buffer with DNAse I (and optionally RNAsin) was added to each well. Cells were shaken/mixed thoroughly at room temperature for 5-10 minutes for lysis to take place and then 3 uL-5 uL of room temperature stop solution was added and wells were shaken/mixed again. After 2-5 minutes, the cell lysate plate was transferred to ice for RT-qPCR reaction setup. The lysates could also be frozen at −80° C. for later use.
In some cases, a direct lysis buffer was used. An appropriate volume of 3× lysis buffer (10 mM Tris, 150 mM NaCl, 1.5%-2.5% Igepal and 0.1-1 U/uL RNAsin, pH 7.4) was directly added to either K562 or A673 cells in media and mixed by pipetting 3 times. The plates were then incubated at room temperature with shaking/rocking for 20-50 minutes to allow for lysis to take place. After this time, the cell lysate plate was transferred to ice to set up for the RT-qPCR reactions. The lysates could also be frozen at −80° C. for later use. […]

For test [2], the system named is HTT CJ mRNA. Put plainly: Gene panel canonical junction qPCR assay, HTT. Conditions: decrease in CJ mRNA levels, gene panel; read-out: HTT IC50. How it is done: (§1) The expression of a target mRNA was measured by detecting the formation of an exon-exon junction in the canonical transcript (CJ). A compound mediated exon-inclusion event was detected by observing an increase in formation of a new junction with an alternative exon (AJ). Real-time qPCR assays were used to detect these splicing switches and interrogate the potency of various compounds towards different target genes. A high-throughput real time quantitative PCR (RT-qPCR) assay was developed to measure these two isoforms of the mRNA (CJ and AJ) for an exemplary gene, HTT, together with a control housekeeping gene, GAPDH or GUSB or PPIA, used for normalization. Briefly, the A673 or K562 cell line was treated with various compounds described herein (e.g., compounds of Formula (I)). After treatment, the levels of the HTT mRNA targets were determined from each sample of cell lysate by cDNA synthesis followed by qPCR. The A673 cell line was cultured in DMEM with 10% FBS. Cells were diluted with full growth media and plated in a 96-well plate (15,000 cells in 100 ul media per well). The plate was incubated at 37° C. with 5% CO2 for 24 hours to allow cells to adhere. An 11-point 3-fold serial dilution of the compounds was made in DMSO then diluted in media in an intermediate plate. Compounds were transferred from the intermediate plate to the cell plate with the top dose at a final concentration of 10 uM in the well. Final DMSO concentration was kept at or below 0.25%. The cell plate was returned to the incubator at 37° C. with 5% CO2 for an additional 24 hours. The K562 cell line was cultured in IMDM with 10% FBS. For K562, cells were diluted with full growth media and plated in either a 96-well plate (50,000 cells in 50 uL media per well) or a 384-well plate (8,000-40,000 cells in 45 uL media per well). An 11-point 3-fold serial dilution of the compounds were made in DMSO then diluted in media in an intermediate plate. Compound was transferred from the intermediate plate to the cell plate with the top dose at a final concentration of 10 uM in the well. Final DMSO concentration was kept at or below 0.25%. Final volume was 100 uL for 96-well plate and 50 uL for 384-well plate. The cell plate was then placed in an incubator at 37° C. with 5% CO2 for 24 hours. The cells were then gently washed with 50 uL-100 uL cold PBS before proceeding to addition of lysis buffer. 30 uL-50 uL of room temperature lysis buffer with DNAse I (and optionally RNAsin) was added to each well. Cells were shaken/mixed thoroughly at room temperature for 5-10 minutes for lysis to take place and then 3 uL-5 uL of room temperature stop solution was added and wells were shaken/mixed again. After 2-5 minutes, the cell lysate plate was transferred to ice for RT-qPCR reaction setup. The lysates could also be frozen at −80° C. for later use. In some cases, a direct lysis buffer was used. An appropriate volume of 3× lysis buffer (10 mM Tris, 150 mM NaCl, 1.5%-2.5% Igepal and 0.1-1 U/uL RNAsin, pH 7.4) was directly added to either K562 or A673 cells in media and mixed by pipetting 3 times. The plates were then incubated at room temperature with shaking/rocking for 20-50 minutes to allow for lysis to take place. After this time, the cell lysate plate was transferred to ice to set up for the RT-qPCR reactions. The lysates could also be frozen at −80° C. for later use. To set up 10 uL RT-qPCR reactions, cell lysates were transferred to 384-well qPCR plates containing the master mix according to the table below. The plates were sealed, gently vortexed, and spun down before the run. The volumes were adjusted accordingly in some instances where the reaction was carried in 20 uL. The table below summarizes the components of the RT-qPCR reactions: The RT-qPCR reaction was performed using a QuantStudio (ThermoFisher) under the following fast cycling conditions. All samples and standards were analyzed at least in duplicate.

Test [3] concerns SMN2 CJ mRNA. Put plainly: Gene panel canonical junction qPCR assay, SMN2. Conditions: decrease in CJ mRNA levels, gene panel; read-out: SMN2 IC50. The procedure: as §1
Test [4] concerns Target C CJ mRNA. Put plainly: Gene panel canonical junction qPCR assay, Target C. Conditions: decrease in CJ mRNA levels, gene panel; read-out: Target C IC50. How it is done: as §1
[5] abbreviates: decrease in CJ mRNA (50% response), read-out: HTT CJ AC50.
[6] abbreviates: increase in AJ mRNA (50% response), read-out: HTT AJ AC50.

Read-outs that look alike come from different tables or passages of the source.

On to `Cc1cn2cc(-c3ccc4c(=O)n(C5CCNCC5)ncc4c3)ncc2n1` [Compound 255], for which the AC50 in test [1] (setting [5]) and in test [1] (setting [6]) was 1000 to 10000 nM in each case. The IC50 in test [2] was 1000 to 10000 nM; in test [3], 100 to 1000 nM; in test [4] it was over 10000 nM.
As to `Cc1cn2cc(-c3ccc4c(=O)n(C5CCNCC5)ccc4c3)cc(F)c2n1` [Compound 276, 6-(8-fluoro-2-methylimidazo[1,2-a]pyridin-6-yl)-2-(piperidin-4-yl)isoquinolin-1(2H)-one], the AC50 in test [1] (setting [5]) and in test [1] (setting [6]) was under 100 nM each time. The IC50 in test [2], in test [3] and in test [4] was under 100 nM each time.
Regarding `Cc1cn2nc(-c3ccc4c(c3)CCN(C3CCNC(C)(C)C3)C4=O)cc(C)c2n1` (stereo not shown) [Compound 267], the figures for the concentration at half-maximal activity (AC50) in test [1] (setting [5]) and in test [1] (setting [6]) were 1000 to 10000 nM and 100 to 1000 nM, respectively. In addition, the figures for the IC50 in test [2], in test [3] and in test [4] were 1000 to 10000 nM, under 100 nM and 1000 to 10000 nM, respectively.
In the case of `Cc1cn2cc(-c3ccc4c(=O)n(C5CCN(C)CC5)cnc4c3)cc(F)c2n1` [Compound 207, 7-(8-fluoro-2-methylimidazo[1,2-a]pyridin-6-yl)-3-(1-methylpiperidin-4-yl)quinazolin-4(3H)-one], the AC50 in test [1] (setting [5]) and in test [1] (setting [6]) was 1000 to 10000 nM throughout. Further, the IC50 in test [2] lay within 1000 to 10000 nM; in test [3] it was 100 to 1000 nM; in test [4] it was 1000 to 10000 nM.
For the compound `O=C1c2ccc(-c3cn[nH]c3)cc2CCN1C1CCNCC1` [Compound 220], the AC50 in test [1] (setting [5]) and in test [1] (setting [6]) was over 10000 nM each time. Also, the IC50 in test [2], in test [3] and in test [4] was over 10000 nM in each case.
Regarding `Cc1cn2nc(-c3cc(F)c4c(=O)n(C5CCN(C)CC5)cnc4c3)cc(C)c2n1` [Compound 242, 7-(2,8-dimethylimidazo[1,2-b]pyridazin-6-yl)-5-fluoro-3-(1-methylpiperidin-4-yl)quinazolin-4(3H)-one], the AC50 in test [1] (setting [5]) and in test [1] (setting [6]) was under 100 nM in each case. For the same compound, the results for the IC50 in test [2], in test [3] and in test [4] were under 100 nM, under 100 nM and 100 to 1000 nM, respectively.
With `CN1CCC(Nc2ccc3c(=O)n(-c4ccc5cn(C)nc5c4)cnc3c2)CC1` [Compound 203, 3-(2-methyl-2H-indazol-6-yl)-7-((1-methylpiperidin-4-yl)amino)quinazolin-4(3H)-one], the concentration at half-maximal activity (AC50) in test [1] (setting [5]) and in test [1] (setting [6]) was over 10000 nM each time. The half-maximal inhibitory concentration (IC50) in test [2], in test [3] and in test [4] was over 10000 nM in each case.
Regarding `CN1C2C=C(c3ccc4c(=O)n(-c5ccc6nn(C)cc6c5)cnc4c3)CC1CC2` (stereo not shown) [Compound 161, 3-(2-methyl-2H-indazol-5-yl)-7-(8-methyl-8-azabicyclo[3.2.1]oct-2-en-3-yl)quinazolin-4(3H)-one], the AC50 in test [1] (setting [5]) and in test [1] (setting [6]) was over 10000 nM each time. For the same compound, the IC50 in test [2], in test [3] and in test [4] was over 10000 nM in each case.
Take `Cc1cn2nc(-c3ccc4c(=O)n(C5CCN(C)CC5)cnc4c3)cc(C)c2n1` [Compound 176, 7-(2,8-dimethylimidazo[1,2-b]pyridazin-6-yl)-3-(1-methylpiperidin-4-yl)quinazolin-4(3H)-one]: the half-maximal activity concentration (AC50) in test [1] (setting [5]) and in test [1] (setting [6]) was 1000 to 10000 nM each time. For the same compound, the values for the IC50 in test [2], in test [3] and in test [4] were 1000 to 10000 nM, 100 to 1000 nM and 1000 to 10000 nM, respectively.
With `Cc1cn2cc(-c3ccc4c(=O)n(C5CCNC6(CC6)C5)cnc4c3)cc(F)c2n1` (stereo not shown) [Compound 236, 7-(8-fluoro-2-methylimidazo[1,2-a]pyridin-6-yl)-3-(4-azaspiro[2.5]octan-7-yl)quinazolin-4(3H)-one], the half-maximal activity concentration (AC50) in test [1] (setting [5]) and in test [1] (setting [6]) was 100 to 1000 nM throughout. For the same compound, the IC50 in test [2] is 100 to 1000 nM; in test [3], under 100 nM; in test [4] it was 100 to 1000 nM.
`Cc1cn2nc(-n3cnc4cc(N5CCNCC5)ccc4c3=O)cc(C)c2n1` [Compound 241, 3-(2,8-dimethylimidazo[1,2-b]pyridazin-6-yl)-7-(piperazin-1-yl)quinazolin-4(3H)-one]: the AC50 in test [1] (setting [5]) and in test [1] (setting [6]) was 1000 to 10000 nM in each case. In addition, the half-maximal inhibitory concentration (IC50) in test [2], in test [3] and in test [4] was 1000 to 10000 nM throughout.

(Values after patent US20230159496A1, “COMPOUNDS AND METHODS FOR MODULATING SPLICING” (REMIX THERAPEUTICS INC., priority 2020, published 2023).)
